Measurements reported in US8623859B2, “Bradykinin B1 antagonists” (Evotec AG, priority 2008, dated 2014).
Counter-ions that a name gives are not always drawn.

Target: T1, human B1 (Homo sapiens, UniProt P46663)
T1 construct: host or cells: CHO-K1
T1 sequence (P46663 1-353): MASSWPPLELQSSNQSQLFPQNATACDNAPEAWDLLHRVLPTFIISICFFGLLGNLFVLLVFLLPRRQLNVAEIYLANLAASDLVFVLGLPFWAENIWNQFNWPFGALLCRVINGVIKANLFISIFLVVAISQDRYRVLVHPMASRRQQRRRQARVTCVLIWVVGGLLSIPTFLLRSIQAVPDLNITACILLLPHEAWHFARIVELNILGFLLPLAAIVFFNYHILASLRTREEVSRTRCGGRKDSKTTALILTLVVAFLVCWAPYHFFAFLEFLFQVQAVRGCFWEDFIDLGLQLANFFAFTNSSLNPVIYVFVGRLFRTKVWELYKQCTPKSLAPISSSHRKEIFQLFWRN
Test: Calcium flux assay for Bradykinin B1 antagonist, CHO-K1 cell line expressing human B1
Assay type: cell-based
Details: CHO-K1 cells expressing human B1, agonist Lys-(Des-Arg)-Bradykinin, read-out: Potency (IC50 value against human B1)
In short: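 CHO-K1 cells expressing human B1, loaded with 5 μM Fluo-4AM (2 h, 37° C) in HEPES buffer pH 7.4 with probenecid and 0.1% BSA, were preincubated 30 min at 25° C with compound (8 concentrations, triplicate, 1% DMSO) before B1 agonist addition. Ca2+ fluorescence monitored at 538 nm; background-normalized integrated values plotted against log antagonist concentration.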

Compound	IC50
COc1cc(C)c(S(=O)(=O)N(C)Cc2cc(C(=O)N(C)Cc3ccc(CN4CC(O)C4)cc3)co2)c(C)c1 [Ex 128, N-{4-[(3-Hydroxyazetidin-1-yl)methyl]benzyl}-5-({[(4-methoxy-2,6-dimethylphenyl)sulfonyl](methyl)amino}methyl)-N-methylfuran-3-carboxamide]	100 to 1000 nM
COc1cc(C)c(S(=O)(=O)N(C)Cc2cc(C(=O)N3CCN(CC4CCN(C)CC4)CC3)co2)c(C)c1 [Ex 32, 4-methoxy-N,2,6-trimethyl-N-{[4-({4-[(1-methylpiperidin-4-yl)methyl]piperazin-1-yl}carbonyl)furan-2-yl]methyl}benzenesulfonamide]	100 to 1000 nM
COc1cc(C)c(S(=O)(=O)N(C)Cc2nc(C(=O)N(C)Cc3ccc(CN4CCCC4)cc3)co2)c(C)c1 [Ex 71, 2({[(4-Methoxy-2,6dimethylphenyl)sulfonyl](methyl)amino}methyl)-N-methyl-N-[4-(pyrrolidin-1-ylmethyl)benzyl]-1,3-oxazole-4-carboxamide]	< 10 nM
COc1cc(C)c(S(=O)(=O)N(Cc2cc(C(=O)N3CCN(CC4CCCN(C)C4)CC3)co2)C2CC2)c(C)c1 (centres unmarked) [Ex 106, N-Cyclopropyl-4-methoxy-2,6-dimethyl-N-{[4-({4-[(1-methylpiperidin-3-yl)methyl]piperazin-1-yl}carbonyl)furan-2-yl]methyl}benzenesulfonamide trifluoroacetate]	10 to 100 nM
COc1cc(C)c(S(=O)(=O)N(C)Cc2cc(C(=O)NC3CC(C)(C)N(C)C(C)(C)C3)co2)c(C)c1 [Ex 3, 5-({[(4-methoxy-2,6-dimethylphenyl)sulfonyl](methyl)amino}methyl)-N-(1,2,2,6,6-pentamethylpiperidin-4-yl)furan-3-carboxamide]	100 to 1000 nM

Now from value to compound:

IC50	Compound
100 to 1000 nM	Cc1cc(S(=O)(=O)N(Cc2nc(C(=O)N(C)Cc3ccc(CN4CCCC4)cc3)co2)C2CC2)c(C)cc1Cl [Ex 218, 2-({[(4-Chloro-2,5-dimethylphenyl)sulfonyl](cyclopropyl)amino}methyl)-N-methyl-N-[4-(pyrrolidin-1-ylmethyl)benzyl]-1,3-oxazole-4-carboxamide trifluoroacetate]
100 to 1000 nM	COc1cc(C)c(S(=O)(=O)N(Cc2cc(C(=O)N(C)Cc3ccc(CN4CCCC(OC)C4)cc3)co2)C2CC2)c(C)c1 (centres unmarked) [Ex 144, 5-({Cyclopropyl[(4-methoxy-2,6-dimethylphenyl)sulfonyl]amino}methyl)-N-{4-[(3-methoxypiperidin-1-yl)methyl]benzyl}-N-methylfuran-3-carboxamide]
10 to 100 nM	COc1cc(C)c(S(=O)(=O)N(C)Cc2nnc(C(=O)N(C)Cc3cccc(CN4CCCC4)c3)s2)c(C)c1 [Ex 331, 5-({[(4-Methoxy-2,6-dimethylphenyl)sulfonyl](methyl)amino}methyl)-N-methyl-N-[3-(pyrrolidin-1-ylmethyl)benzyl]-1,3,4-thiadiazole-2-carboxamide trifluoroacetate]
10 to 100 nM	COc1cc(C)c(S(=O)(=O)N(C)Cc2nnc(C(=O)N3CCN(Cc4ccc(OC)nc4)CC3)o2)c(C)c1 [Ex 260, 4-Methoxy-N-{[5-({4-[(6-methoxypyridin-3-yl)methyl]piperazin-1-yl}carbonyl)-1,3,4-oxadiazol-2-yl]methyl}-N,2,6-trimethylbenzenesulfonamide trifluoroacetate]
< 10 nM	COc1cc(C)c(S(=O)(=O)N(C)Cc2cc(C(=O)N(C)Cc3ccc(CN4CCCC(O)C4)cc3)co2)c(C)c1 (centres unmarked) [Ex 134, N-{4-[(3-Hydroxypiperidin-1-yl)methyl]benzyl}-5-({[(4-methoxy-2,6-dimethylphenyl)sulfonyl](methyl)amino}methyl)-N-methylfuran-3-carboxamide]
100 to 1000 nM	COc1cc(C)c(S(=O)(=O)N(C)Cc2nnc(C(=O)N(C)Cc3ccc(CN4CCC(N(C)C)C4)cc3)o2)c(C)c1 (centres unmarked) [Ex 285, N-(4-{[3-(Dimethylamino)pyrrolidin-1-yl]methyl}benzyl)-5-({[(4-methoxy-2,6-dimethylphenyl)sulfonyl](methyl)amino}methyl)-N-methyl-1,3,4-oxadiazole-2-carboxamide]
